Reference: patent US11439606B2 (priority 2018, dated 2022)

Columns and labels:
Format in all cases: in vivo, rat
[1] = system: type I diabetic rats; test: Liver function tests (bilirubin, aspartate aminotransferase, gamma glutamyltransferase, alkaline phosphatase) in type I diabetic rats treated with DMF; conditions: versus untreated control rats, DMF 8 mg/kg daily ip
Method: (§1) Controlled test results were performed by, and under the direction of, the inventors, involving four type I diabetic rats, two of which were female and two were male, for the purpose of measuring the effectiveness of administering treatment in accordance with the present invention.

[2] = system: type I diabetic rats; test: Cholesterol and triglyceride levels in type I diabetic rats treated with DMF; conditions: versus untreated rats and known levels in non-diabetic rats; DMF 8 mg/kg daily ip
Method: as §1

[3] = system: type I diabetic rats; test: Glycemia in STZ-induced type I diabetic rats treated with DMF; conditions: DMF 8 mg/kg daily ip
[4] = system: type I diabetic rats; test: Renal function tests (urea, serum creatinine) in type I diabetic rats treated with DMF; conditions: DMF 8 mg/kg daily ip
Method: as §1

[5] = first rat, STZ-induced diabetes, average glycemia 440 mg % before treatment

What does the source list for dimethylformamide [DMF]?
liver function (FIG. 5) [1]: either improved or not substantially different; cholesterol levels (FIG. 3) [2]: somewhat elevated; triglycerides levels (FIG. 3) [2]: significantly lowered; glycemia level versus untreated rats (FIG. 1) ([3]; female and male type I diabetic rats): remaining significantly below female and male rats not receiving treatment; blood glucose level after seven days of treatment [3, 5]: below 100 mg %; blood glucose level four days after treatment [3, 5]: 94 mg %; blood glucose level after seven days of treatment ([3]; second rat, STZ-induced diabetes, average glycemia 526 mg % before treatment): below 120 mg %; levels of serum creatinine (FIG. 4) ([4]; versus untreated type I diabetic rats and known levels in non-diabetic rats): not only lower than the untreated, type I diabetic control group, but also lower than known levels of serum creatinine in non-diabetic female and male rats; levels of urea (FIG. 4) ([4]; versus untreated type I diabetic rats): below that of the untreated type I diabetic rats
